Measured values reported in patent US8946423B2, “Highly soluble salt of pyrroloquinoline quinone and method for producing the same” (Mitsubishi Gas Chemical Company, Inc., priority 2010, dated 2015).

Experiment: Dissolution test: salts dissolved up to saturation, solubility determined by absorbance at 450 nm
Details: for Relative Ratio (solubility): relative to Disodium Salt of PQQ in water = 1; for solubility of pyrroloquinoline / solubility of pyrroloquinoline, mmol/L: saturation at room temperature of 23 to 28° C.
Experimental: The disodium salt of PQQ obtained by the method as described in Example 1 was used.
These salts were dissolved up to saturation at room temperature of 23 to 28° C., and these solutions each were diluted by 20 times or 400 times with a phosphate buffer having a pH of 7.5. For the diluted solutions each, an analysis of the ultraviolet-visible absorption spectra was carried out using a HITACHI U-2000 spectrometer.

Row | Molecule | solubility in ethanol (in words) | Relative Ratio (solubility) (Solvent Ethanol) | solubility of pyrroloquinoline (Solvent Ethanol) | Relative Ratio (solubility) (Solvent Water) | solubility of pyrroloquinoline (Solvent Water) | solubility of pyrroloquinoline, mmol/L (Solvent Ethanol) | solubility of pyrroloquinoline, mmol/L (Solvent Water)
1 | O=C([O-])c1cc(C(=O)[O-])c2c(n1)C(=O)C(=O)c1cc(C(=O)O)[nH]c1-2.[Na+].[Na+] [Disodium Salt of PQQ, reference compound] | almost insoluble |  |  |  |  |  | 
2 | Monocholine Salt of PQQ |  | 0.06 | 0.52 mmol/L | 0.24 | 1.94 mmol/L |  | 
3 | Dicholine Salt of PQQ |  | 13.9 | 111 mmol/L | 11.8 | 94 mmol/L |  | 
4 | C[N+](C)(C)CCO.C[N+](C)(C)CCO.C[N+](C)(C)CCO.O=C(O)c1cc(C(=O)O)c2c(n1)C(=O)C(=O)c1cc(C(=O)O)[nH]c1-2 [Tricholine Salt of PQQ] |  |  |  |  |  | ≥ 171 or mmol/L | ≥ 171 or mmol/L
